This is an account of results in patent publication US11591326B2, “Inhibitors of protein arginine methyltransferase 5 (PRMT5), pharmaceutical products thereof, and methods thereof” (PHARMABLOCK SCIENCES (NANJING), INC., priority 2018, dated 2023).

One data set relates to HCC827. Nature of the data set: Lung cancer panel proliferation inhibition, HCC827. In kind it is cell-based. To be noted: Homo sapiens. As to the method: (§1) Inhibitory ability of compounds synthesized on the proliferation of three panels of cancer cell lines, including 5 breast cancer, 6 liver cancer, and 3 lung cancer cell lines were evaluated. Exponentially growing cells were seeded in the media of choice at various cell densities in 384-well plates with 20 ul per well and incubated overnight at 37° C., 5% CO2 incubator. Compounds were prepared as 10-point, 3-fold serial dilutions in DMSO, beginning at 6 mM. 1 μl of DMSO solutions from the compound stock plates were added to 99 ul of cell media (final top concentration of compound in the assay was 30 uM and the final concentration of DMSO was 0.5%). 20 μL of compound solutions in media were added to each well of plates with cells seeded. After adding compound solutions, assay plates were incubated for 8 and 12 days, respectively, at 37° C., 5% CO2. During this incubation period, cell media was changed every 4 days. After removing old media from cell plates, 40 ul of media with testing compounds dissolved, which were prepared by adding 1 ul of compound DMSO serial solutions to 199 ul of cell media, were added to the assay plates with the same layout as they were initially prepared. After 8 or 12 days, cell viability was measured using the CellTiter-Glo assay kit from Promega (Madison, Wis., USA) by quantitating the ATP present in the cell cultures. 20 μL of CellTiter-Glo reagent was added to each well of the cell plates. Luminescence was read after 10 minute of incubation with the Envision multiple plate reader from PerkinElmer (Waltham, Mass., USA). The concentrations of compounds inhibiting cell viability by 50% (IC50 values) were determined using a sigmoidal dose-response model (variable slopes, four parameters) in Prism 7 (La Jolla, Calif., USA).

For a further data set, the system named is Glioblastoma U-251 cell. Put plainly: Cell proliferation inhibition, U-251 (CellTiter-Glo). To be noted: Homo sapiens, U-251, incubated for 12 days (read after 8 or 12 days). In kind it is cell-based. From the text: Materials and Cell Lines: Z-138, U251, and MIA PaCa2 cells were purchased from ATCC (American Type Culture Collection, Manassas, Va.) and Chinese Academy of Science (Shanghai, China). Iscove's Modified Dulbecco's Medium (IMDM), Dulbecco's Modified Eagle Medium (DMEM), penicillin-streptomycin, heat inactivated fetal bovine serum (FBS), and horse serum was purchased from ThermoFisher, Waltham, Mass., USA. Corning 96- and 384-well cell culture plates were purchased from ThermoFisher, Waltham, Mass., USA. Cell-Titer Glo® was purchased from Promega Corporation, Madison, Wis., USA.
In order to evaluate the inhibitory ability of compounds synthesized on the proliferation of the Glioblastoma U-251 cell, exponentially growing cells were seeded in the cell culture media of DMEM with 10% FBS and 1% penicillin-streptomycin at a concentration of 10000 cells/ml in a 384-well plate with 20 ul per well and incubated overnight at 37° C., 5% CO2 incubator. Compounds were prepared as 10-point, 3-fold serial dilutions in DMSO, beginning at 6 mM. 1 μl of DMSO solutions from the compound stock plates were added to 99 ul of cell culture media (final top concentration of compound in the assay was 30 uM and the final concentration of DMSO was 0.5%). 20 μL of compound solutions in media were added to each well of U-251 cell plates. After adding compound solutions, assay plates were incubated for 12 days at 37° C., 5% CO2. During this incubation period, cell culture media with freshly dissolved testing compounds was changed every 4 days. After removing old media from cell plates, 40 ul of media with testing compounds dissolved, which were prepared by adding 1 ul of compound DMSO serial solutions to 199 ul of cell media, were added to the assay plates with the same layout as they were initially prepared. After 8 or 12 days, cell viability was measured using the CellTiter-Glo assay kit from Promega (Madison, Wis., USA) by quantitating the ATP present in the cell cultures. 20 μL of CellTiter-Glo reagent was added to each well of the cell plates. Luminescence was read after 10 minute of incubation with the Envision multiple plate reader from PerkinElmer (Waltham, Mass., USA). The concentrations of compounds inhibiting cell viability by 50% (IC50 values) were determined using a sigmoidal dose-response model (variable slopes, four parameters) in Prism 7 (La Jolla, Calif., USA).
(In ATP-based viability assays light output follows the ATP content of the culture.)

Another data set deals with SNU475. Put plainly: Liver cancer panel proliferation inhibition, SNU475. It is filed as cell-based. The following applies: Homo sapiens. As to the method:
as §1

The next data set deals with MHCC-97H. Put plainly: Liver cancer panel proliferation inhibition, MHCC-97H. It is filed as cell-based. The following applies: Homo sapiens, MHCC97H. The method, then:
as §1

The test system of another data set is A-549. Nature of the data set: Lung cancer panel proliferation inhibition, A-549. It is filed as cell-based. To be noted: Homo sapiens. The method, then: as §1
Data set [1] is described as follows: Pharmacokinetic study in dog. It is filed as in vivo, male beagle dogs. The following applies: male, beagle; for plasma clearance / Vd: 2 mg/kg, Dog PK (IV) 2 mpk; for plasma clearance: read-out: Clint (converted); for Vd / AUC(0-t) / Cmax / Tmax / bioavailability / half-life: plasma; for Vd: read-out: Vss; for AUC(0-t) / Cmax / Tmax / bioavailability / half-life: 10 mg/kg, Dog PK (PO) 10 mpk; for half-life: read-out: T½ (converted). As to the method: None naïve male beagle dogs (8-10 kg; purchased from Beijing Marshall Biotechnology Co. LTD; n=18, with 3 per compound) were treated with a single dose of compounds being tested at 2 mg/kg by intravenous tail-vein injection and 10 mg/kg by oral gavage administration, with both doses formulated in 5% DMSO+45% PEG400 in water. Animals upon PO administration were fasted overnight and fed 4 hours after dosing. Animals upon IV administration were free access to food and water. The study was performed in accordance with the guidelines and standards of the Association for Assessment and Accreditation of Laboratory Animal Care (AAALAC International) and the National Institutes of Health.
The animal was restrained manually at the designated time points, and approximately 500 μL of each blood/time point was collected via cephalic vein and put on wet ice, then centrifuged at 2000 g for 5 min (4° C.) within 15 minutes post sampling. Plasma samples were stored at approximately −70° C. until analysis. An aliquot of 20 μL sample was added with 200 μL IS (Diclofenac, 100 ng/mL) in ACN. The mixture was vortexed for 10 min and centrifuged at 5800 rpm for 10 min. An aliquot of 1 μL supernatant was injected for LC-MS/MS analysis. For 10×-diluted sample, an aliquot of 2 μL sample was added with 18 μL blank plasma. The sample preparation procedure is same with no-diluted sample. Standard calibration curves were constructed by analyzing a series of control plasma aliquots containing Diclofenac (100 ng/mL) as an internal standard and 3-3,000 ng/mL testing compounds. Compound concentrations were determined with UPLC-MS/MS-22 (Triple Quad™ 6500).

Setting [2] is: 192 h, HCC827, 8 days, read-out: IC50 (μM) 8 days.
Setting [3] is: 288 h, HCC827, 12 days, read-out: IC50 (μM) 12 days.
[4] abbreviates: SNU-475, 192 h, SNU475, 8 days, read-out: IC50 (μM) 8 days.
Setting [5] is: SNU-475, 288 h, SNU475, 12 days, read-out: IC50 (μM) 12 days.
Where [6] appears, read: 192 h, 8 days, read-out: IC50 (μM) 8 days.
The mark [7] stands for this setting: 288 h, 12 days, read-out: IC50 (μM) 12 days.
Where [8] appears, read: A549, 192 h, A-549, 8 days, read-out: IC50 (μM) 8 days.
Where [9] appears, read: A549, 288 h, A-549, 12 days, read-out: IC50 (μM) 12 days.

The structures appear in SMILES notation. Like-named read-outs stand apart in the source and are kept apart here.

Broadly, the IC50 is the concentration needed to halve the response being measured. A word on the AUC(0-t): it is exposure summed from dosing to a finite time, without extrapolation to infinity. In general, Cmax refers to the peak of the concentration-time curve. Usually Tmax stands for the time at which the peak concentration occurs.

In the case of `CC(=O)N1CCC(Nc2ccc3c(c2)C(=O)N(C[C@H](O)CN2CCc4ccccc4C2)CC3)CC1` [Compound 24a, (R)-7-((1-acetylpiperidin-4-yl)amino)-2-(3-(3,4-dihydroisoquinolin-2(1H)-yl)-2-hydroxypropyl)-3,4-dihydroisoquinolin-1(2H)-one], the IC50 with HCC827 (setting [2]) was 0.19 µM; in the data set with HCC827 (setting [3]), 0.11 µM; in the data set on Glioblastoma U-251 cell, 0.097 µM; with SNU475 (setting [4]), 0.21 µM; in the data set on SNU475 (setting [5]), 0.32 µM; in the data set with MHCC-97H (setting [6]), 0.02 µM. Besides, the IC50 with MHCC-97H (setting [7]) is 0.029 µM; in the data set on A-549 (setting [8]), 0.064 µM; with A-549 (setting [9]) it was 0.037 µM. In addition, in data set [1], the plasma clearance was 0.256 L/h/kg. In addition, in data set [1], the Vd was determined as 1.81 ± 0.13 L/kg. In addition, in data set [1], the exposure AUC(0-t) amounted to 35.1 ± 7.99 µg·h/mL. The Cmax in data set [1] was 4.44 ± 0.68 µg/mL. Further, the Tmax in data set [1] was determined as 2 h. In data set [1], the bioavailability worked out at 89.8 ± 20.5%. For the same molecule, the half-life in data set [1] was 3.76 ± 0.195 h.
For the molecule `CC(=O)N1CCC(Nc2ccc3c(c2)C(=O)N(C[C@H](O)CN2CCc4ccccc4C2)CCO3)CC1` [Compound 52a, (R)-7-((1-acetylpiperidin-4-yl)amino)-4-(3-(3,4-dihydroisoquinolin-2(1H)-yl)-2-hydroxypropyl)-3,4-dihydrobenzo[f][1,4]oxazepin-5(2H)-one], the concentration for half-maximal inhibition (IC50) is 0.16 µM with HCC827 (setting [2]); 0.089 µM in the data set on HCC827 (setting [3]); 0.293 µM in the data set on Glioblastoma U-251 cell; 0.29 µM in the data set with SNU475 (setting [4]); 0.35 µM in the data set on SNU475 (setting [5]); 0.023 µM in the data set on MHCC-97H (setting [6]). In addition, the half-inhibitory concentration (IC50) worked out at 0.024 µM in the data set on MHCC-97H (setting [7]), 0.13 µM with A-549 (setting [8]) and 0.028 µM in the data set with A-549 (setting [9]). Further, the plasma clearance in data set [1] is 0.31 L/h/kg. In addition, the Vd in data set [1] is 1.56 ± 0.041 L/kg. In data set [1], this molecule showed an AUC(0-t) of 42.1 ± 13.2 µg·h/mL. In data set [1], this molecule registered a Cmax of 5.55 ± 1.59 µg/mL. In data set [1], the Tmax worked out at 1.33 ± 0.577 h. Besides, the bioavailability in data set [1] is 133 ± 38.6%. In addition, the half-life in data set [1] is 4.81 ± 1 h.
In the case of `CC(=O)N1CCC(Nc2cc(C(=O)NC[C@H](O)CN3CCc4ccccc4C3)ncn2)CC1` [Compound C3, reference compound], the IC50 is 0.34 µM in the data set on HCC827 (setting [2]); 0.5 µM with HCC827 (setting [3]); 0.17 µM in the data set on Glioblastoma U-251 cell; 0.66 µM in the data set with SNU475 (setting [4]); 0.86 µM in the data set with SNU475 (setting [5]); 0.089 µM in the data set with MHCC-97H (setting [6]). The half-maximal inhibitory concentration (IC50) in the data set with MHCC-97H (setting [7]) amounted to 0.086 µM; in the data set with A-549 (setting [8]), 0.096 µM; in the data set on A-549 (setting [9]), 0.066 µM. In addition, the plasma clearance in data set [1] was 0.808 L/h/kg. Moreover, in data set [1], the Vd turned out to be 1.32 ± 0.144 L/kg. The AUC(0-t) in data set [1] was determined as 13.3 ± 3.28 µg·h/mL. Moreover, in data set [1], the Cmax amounted to 3 ± 0.567 µg/mL. Further, the Tmax in data set [1] amounted to 1.67 ± 0.577 h. Further, the bioavailability in data set [1] was determined as 105 ± 25.5%. For the same molecule, the half-life in data set [1] is 3.37 ± 0.64 h.
